Results reported in ChEMBL document CHEMBL1126377, “Synthesis of 9-[2-(phosphonomethoxy)ethylamino]adenine and 9-[(phosphonomethoxy)acetamido]adenine, analogues of a potent anti-HIV acyclonucleotide” (Bioorg Med Chem Lett, 1992).
pIC50: −log10 of the molar value. Calls of active or inactive are those of the source. The calls are words filed in the database; no cut-off is given here.

Experiments:
Type in all cases: functional, organism-based
Human alphaherpesvirus 2 = test: Effect on replication of herpes simplex virus type 2 at a concentration of 300 uM; NE=No effect
Human alphaherpesvirus 3 = test: Effect on replication of varicella zoster virus at a concentration of 300 uM; NE=No effect
Human alphaherpesvirus 1 = test: Effect on replication of herpes simplex virus type 1 at a concentration of 300 uM; NE=No effect
Cytomegalovirus = test: Effect on replication of cytomegalovirus at a concentration of 300 uM; NE=No effect
[1] = tested on: Human immunodeficiency virus 1; test: Inhibition of the replication of human immunodeficiency virus (HIV) at 10 uM concentration; NE=No effect
[2] = tested on: Human immunodeficiency virus 1; test: Inhibition of the replication of human immunodeficiency virus (HIV) at 10 uM concentration

Structure (SMILES): Nc1ncnc2c1ncn2NCCOCP(=O)(O)O
- Activity (Human alphaherpesvirus 2): inactive
- Activity (Human alphaherpesvirus 3): inactive
- Activity (Human alphaherpesvirus 1): inactive
- Activity (Cytomegalovirus): inactive
- Activity [1]: inactive

Structure (SMILES): Nc1ncnc2c1ncn2OCCOCP(=O)(O)O
- pIC50 [2]: 6.52

Structure (SMILES): Nc1ncnc2c1ncn2NC(=O)COCP(=O)(O)O
- Activity (Human alphaherpesvirus 2): inactive
- Activity (Human alphaherpesvirus 3): inactive
- Activity (Human alphaherpesvirus 1): inactive
- Activity (Cytomegalovirus): inactive
- Activity [1]: inactive

Structure (SMILES): Nc1ncnc2c1ncn2OCC/C=C/P(=O)(O)O
- pIC50 [2]: 5.00
